Several values for one entry are separate records, joined by “and”; a condition that tells them apart may be missing. Equal entries are not always repeated.
Tested on: CB2
Experiment: CBD bioactivity test (monoclonal antibody test based on CB2 affinity)
Format: binding
Settings: CBD samples isolated from ImmunAG
Protocol: All chemicals and solutions were obtained from Sigma-Aldrich (St. Louis, Mo.). All cell cultures were obtained from Creative Bioarray, Shirley, N.Y. CBD bioactivity was measured using practices described in Cushing et al., “Measuring the Bioactivity of Phytocannabinoid Cannabidiol from Cannabis Sources, and a Novel Non-Cannabis Source,” Journal of Medical Phyto.
CBD Samples and Bioactivity Testing. […] Following isolation, bioactivity was measured using procedures outlined in Cushing et al., “Measuring the Bioactivity of Phytocannabinoid Cannabidiol from Cannabis Sources, and a Novel Non-Cannabis Source,” Journal of Medical Phyto.
The bioactivity testing procedure used in this experiment, as described in Cushing et al., “Measuring the Bioactivity of Phytocannabinoid Cannabidiol from Cannabis Sources, and a Novel Non-Cannabis Source,” Journal of Medical Phyto. Research 10 (2018), which is hereby incorporated by reference in its entirety, consisted of a monoclonal antibody test whose validity was based on the CB2 affinity of CBD samples.

C=C(C)C1CCC(C)=CC1c1c(O)cc(CCCCC)cc1O (stereo not drawn) [CBD, 2-(6-isopropenyl-3-methyl-2-cyclohexen-l-yl)-5-pentyl-1,3-benzenediol]
Bioactivity: 0.80 and 0.90 and 0.95

From patent publication US20210022305A1, “A HUMULUS PLANT VARIANT AND EXTRACTS THEREOF” (BOMI LLC, priority 2018, published 2021)
